From US7951778B2, “Use of compounds having the biological activity of vasoactive intestinal peptide for the treatment of sarcoidosis” (mondoBIOTECH AG, priority 2002, dated 2011)

Tests used:
Type in all cases: in vivo, human
[1] = test system: patient with severe sarcoidosis stadium 3 and secondary pulmonary hypertension; test: Hemodynamic parameters by right heart catheterization before and after 12 weeks VIP inhalation; conditions: VIP inhalation 200 μg per day
Protocol: (§1) A patient with severe sarcoidosis stadium 3 and secondary pulmonary hypertension was under therapy with cortocosteroids, furosemid, oxygen and an anticoagulant. Right heart catheterization (Swan-Ganz, Baxter, Irvine, Calif., USA) was performed to measure mean pulmonary artery pressure (mPAP), cardiac output (CO), mean arterial pressure (MAP), pulmonary capillary wedge pressure (PCWP) mixed venous oxygen saturation (SvO2%) and systemic arterial oxygen pressure (PaO2%) for and after treatment with VIP inhalation (200 μg in 12 ml 0.9% NaCl per day, 4×3 ml per inhalation) for 12 weeks. FEV1 (forced expiratory volume in one second), FVC (forced vital capacity), TLC (total lung capacity), AaDO2 (arterial-alveolar oxygen difference) of sarcoidosis patient is measured according to standard methods for and after treatment with VIP (200 μg in 12 ml 0.9% NaCl per day) for 12 weeks. VIP was inhaled for 12 weeks via the MicroDrop Master Jet (MPV, Truma, Germany) using a particle size of 3 μm to provide alveolar deposition of the substance.
(§2) Hemodynamic and lung function parameters of the sarcoidosis patient before and after the treatment with VIP for 12 weeks are summary in Table 2.

[2] = test system: patient with severe sarcoidosis stadium 3 and secondary pulmonary hypertension; test: Lung function parameters before and after 12 weeks VIP inhalation; conditions: after treatment, VIP inhalation 200 μg per day
Protocol: as §1, §2

[3] = test system: patient with severe sarcoidosis stadium 3 and secondary pulmonary hypertension; test: 6-minutes walk test
Protocol: as §1
In the 6-minutes walk test, the patient improved from 210 meters before treatment to 350 meters after the treatment

## His-Ser-Asp-Ala-Val-Phe-Thr-Asp-Asn-Tyr-Thr-Arg-Leu-Arg-Lys-Gln-Met-Ala-Val-Lys-Lys-Tyr-Leu-Asn-Ser-Ile-Leu-Asn [VIP]
[1]; after treatment, before treatment 2.1
  CI: 2.7
[1]; after treatment, before treatment 3.9
  CO (cardiac output): 4.9
[1]; after treatment, before treatment 47.0
  PaO2 (systemic arterial oxygen pressure): 54.0
[1]; after treatment, before treatment 49.4
  SvO2 (mixed venous oxygen saturation): 53.0
[1]; after treatment, before treatment 55.0
  PaCO2: 52.0
[1]; after treatment, before treatment 83.2
  SaO2: 88.0
[1]; after treatment, before treatment 84.0
  mAP (mean arterial pressure): 98.0
[1]; first PCWP line of Table 2, after treatment, before treatment 10
  PCWP (pulmonary capillary wedge pressure): 10
[1]; first PVR line of Table 2, after treatment, before treatment 923
  PVR: 359
[1]; first mPAP line of Table 2, after treatment, before treatment 55
  mPAP (mean pulmonary artery pressure): 32
[1]; second PCWP line of Table 2, after treatment, before treatment 6.0
  PCWP (pulmonary capillary wedge pressure): 7.0
[1]; second PVR line of Table 2, after treatment, before treatment 985.0
  PVR: 313.0
[1]; second mPAP line of Table 2, after treatment, before treatment 54.0
  mPAP (mean pulmonary artery pressure): 26.0
[2]; before treatment 1.2
  FEV1 (forced expiratory volume in one second): 1.1 L
[2]; before treatment 1.4
  FVC (forced vital capacity): 1.3
[2]; before treatment 2.3
  TLC (total lung capacity): 2.7
[2]; before treatment 39.0
  AaDO2 (arterial-alveolar oxygen difference): 37.0
[3]; after the treatment with VIP for 12 weeks, 210 meters before treatment
  6-minutes walk test distance: 350 meters
[3]; after treatment, VIP inhalation 200 μg per day, 12 weeks, before treatment 210
  6-Min.WT: 350
